Key:
Assay type in all cases: in vivo, mice
[1] = tested on: doxorubicin-induced cardiotoxicity; test: Assessment of cardiac function by echocardiography in doxorubicin-induced cardiotoxicity model; conditions: 5 days after DOX; for heart rate (effect of treatment, in words): vs DOX vehicle; for end-systolic LV volume (effect of treatment): vs doxorubicin vehicle group; for anterior and posterior wall thickness in systole (effect of treatment): compound 180 mg/kg
Description: Cardiotoxicity was induced by a single intraperitoneal injection of doxorubicin (DOX) at 20 mg/kg. Doxorubicin was prepared at 2 mg/mL and volume of administration was 10 mL/Kg. • Group 1: Vehicle (i.p.) • Group 2: […] Doxorubicin (20 mg/kg)+compound 001 180 mg/kg • Group 4: Doxorubicin (20 mg/kg)+compound 010 180 mg/kg • Group 5: Doxorubicin (20 mg/kg)+compound 011 180 mg/kg Group Repartition: […] Mice were i.p treated with compounds 001, 010 and 01130 min before DOX injection. Mice were i.p treated with compounds 001,010 and 011 for the duration of the experiment (D0 to D5) once per day. Last injection occurred 24 hours before sacrifice. Echocardiography (ECG) was performed 5 days after doxorubicin injection in anesthetized (isoflurane 1.5-2%) animals with non-invasive two-dimensional echocardiography (VF16-5 probe, Siemens, Acuson NX3 Elite). After removing hairs on the chest, numeric images of the heart will be obtained in both parasternal long-axis and short axis views. The following cardiac function were assessed during ECG: • Left ventricle (LV) end-systolic and end-diastolic inner diameter, • LV end-systolic and end-diastolic volume, • Fractional shortening; • Ejection fraction; • Heart Rate; and • Anterior and posterior wall thickness in Diastole and in systole.

[2] = tested on: doxorubicin-induced cardiotoxicity; test: Plasmatic LDH biomarker in doxorubicin-induced cardiotoxicity model; conditions: plasma, 5 days after DOX
Description: (§1) Cardiotoxicity was induced by a single intraperitoneal injection of doxorubicin (DOX) at 20 mg/kg. Doxorubicin was prepared at 2 mg/mL and volume of administration was 10 mL/Kg.
(§2) • Group 1: Vehicle (i.p.) • Group 2: Doxorubicin (20 mg/kg) • Group 3: Doxorubicin (20 mg/kg)+compound 001 180 mg/kg • Group 4: Doxorubicin (20 mg/kg)+compound 010 180 mg/kg • Group 5: Doxorubicin (20 mg/kg)+compound 011 180 mg/kg Group Repartition:
(§3) The treatment with compounds 001, 010 and 011 was initiated from 5 days before DOX injection once per day from […] to D0.
(§4) Mice were i.p treated with compounds 001, 010 and 01130 min before DOX injection.
(§5) Mice were i.p treated with compounds 001,010 and 011 for the duration of the experiment (D0 to D5) once per day. Last injection occurred 24 hours before sacrifice.
Retro-orbital blood collection was performed at the inclusion and at 1 and 5 days after the induction with DOX to assess biomarkers (especially LDH).
DOX mice were treated with compounds 001,010 and 011 (180 mg/kg) or vehicle. Plasmatic LDH (lactate dehydrogenase) was measured 5 days after doxorubicin injection.

[3] = tested on: doxorubicin-induced cardiotoxicity; test: Body weight in doxorubicin-induced cardiotoxicity model; conditions: for body weight loss observed after doxorubicin administration (effect of treatment): DOX 20 mg/kg i.p. mice, compound 180 mg/kg i.p. daily, D5 vs before injection, vs DOX vehicle
Description: The treatment with compounds 001, 010 and 011 was initiated from 5 days before DOX injection once per day from D5 to D0.
The bodyweight was assessed at inclusion and at D5.

[4] = tested on: doxorubicin-induced cardiotoxicity; test: Survival rate in doxorubicin-induced cardiotoxicity model; conditions: for survival rate (% of survival): DOX 20 mg/kg i.p. mice, compound 180 mg/kg i.p. once daily from 5 days before DOX to D5, 5 days after DOX
Description: The aim of the present study was to evaluate, the effects of i.p. administration of compounds 001, 010 and 011 at 180 mg/kg in the progression of a cardiotoxicity induced by doxorubicin.
as §1
Mortality rate was followed-up all along the experimental phase.
as §2
At D0, mice received DOX (20 mg/kg) by intraperitoneal route.
as §3, §4, §5
The survival rate was recorded every day until the end of the experiment (D5).

[5] = tested on: doxorubicin-induced cardiotoxicity; test: Heart weight in doxorubicin-induced cardiotoxicity model; conditions: 5 days after DOX; for heart weight (effect of treatment): DOX 20 mg/kg mice, compound 180 mg/kg, vs DOX vehicle mice
Description: as §1, §2, §3, §4, §5
At D5, heart and tibia were collected.

[6] = DOX 20 mg/kg mice, compound 180 mg/kg i.p. daily
[7] = doxorubicin 20 mg/kg + vehicle vs control group
[8] = doxorubicin-treated mice (20 mg/kg, vehicle) vs control

| SMILES | ejection fraction [1, 6] [%] | fractional shortening [1, 6] | heart rate (effect of treatment, in words) [1, 6] | end-systolic LV volume (effect of treatment) [1, 6] | anterior and posterior wall thickness in systole (effect of treatment) ([1]; DOX 20 mg/kg mice) | body weight loss observed after doxorubicin administration (effect of treatment) [3] | survival rate (% of survival) [4] [%] | heart weight (effect of treatment) [5] | also measured |
| --- | --- | --- | --- | --- | --- | --- | --- | --- | --- |
| NC(=O)c1ccc[n+]([C@@H]2O[C@H](COP(=O)([O-])O)[C@@H](O)[C@H]2O)c1 [Compound 001, nicotinamide mononucleotide] | 56.9±0.6 | around 38% | increased | reduced | non-significant increases | significantly decreased | 78 |  | decrease of LDH release / reduction in LDH levels ([2]; DOX 20 mg/kg mice, compound 180 mg/kg, vs DOX vehicle): more than 35% |
| NC(=O)c1ccc[n+]([C@@H]2O[C@H](COP(=O)([O-])OP(=O)([O-])OC[C@H]3O[C@H]([n+]4cccc(C(N)=O)c4)[C@H](O)[C@@H]3O)[C@@H](O)[C@H]2O)c1 [Compound 010] | 60.0±0.6 | around 38% | increased | reduced | non-significant increases | significantly decreased | 98 | tended to increase | heart rate [1, 6]: 470.1±18.8 bpm |
| NC(=O)c1ccc[n+]([C@H]2O[C@H](COP(=O)([O-])OP(=O)([O-])OC[C@H]3O[C@H]([n+]4cccc(C(N)=O)c4)[C@H](O)[C@@H]3O)[C@@H](O)[C@H]2O)c1 [Compound 011] | 58.2±0.5 | around 38% | increased | reduced | non-significant increases | significantly decreased | 100 | tended to increase |  |
| COc1cccc2c1C(=O)c1c(O)c3c(c(O)c1C2=O)C[C@@](O)(C(=O)CO)C[C@@H]3O[C@H]1C[C@H](N)[C@H](O)[C@H](C)O1 [doxorubicin, reference compound] |  |  |  |  |  |  |  |  | end-diastolic LV volume [1, 7]: without significative difference; end-systolic LV volume [1, 7]: significant increase; anterior and posterior wall thickness in systole ([1]; doxorubicin 20 mg/kg + vehicle vs control): significantly decreased; heart rate ([1]; doxorubicin 20 mg/kg + vehicle): 365.1±23.9 bpm; ejection fraction ([1]; doxorubicin 20 mg/kg vehicle group): 38.9±1.3%; LV internal diameter in diastole [1, 8]: without significative difference; LV internal diameter in systole [1, 8]: significantly increased; fractional shortening ([1]; doxorubicin-treated mice (20 mg/kg, vehicle)): 33.5±0.4%; increase in LDH release compared to control group ([2]; doxorubicin 20 mg/kg + vehicle): more than 3 fold; heart weight ([5]; doxorubicin 20 mg/kg + vehicle): 102.3 ± 4.6 mg; decrease in body weight (body weight gain) ([3]; doxorubicin 20 mg/kg i.p., surviving vehicle-treated mice, day of sacrifice minus before injection): -4.2 ± 0.5 g; mice died before the end of experimental protocol ([4]; doxorubicin 20 mg/kg i.p. mice treated with vehicle, up to D5): ~50% |
